Laboratory results reported in the supplement of paper PMC10307832.

Legend:
Assay in all cases: relative viability (nuclei count vs DMSO), 5 days (fraction); higher = more cells survive
EHT 1864 + Pemetrexed = compound: C1COCCN1CC2=CC(=O)C(=CO2)OCCCCCSC3=C4C=CC(=CC4=NC=C3)C(F)(F)F [EHT 1864] + Nc1nc2[nH]cc(CCc3ccc(C(=O)N[C@@H](CCC(=O)O)C(=O)O)cc3)c2c(=O)[nH]1 [Pemetrexed] (partner 0.2 µM)
Summary of the method: (§1)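 For relative viability, nuclei counts in treated wells were divided by those in vehicle wells. Lung cancer cell lines had been pin-tool dosed in 1536-well plates the day after seeding and cultured for 5 days, then fixed and stained in one step (final 0.05% Triton X-100, 1% formaldehyde, 1 ug/ml Hoechst) and imaged at 4×. Doses were one drug alone or a fixed anchor-drug dose plus five library-drug doses (not always all listed) in √10 steps, and values are duplicate-plate medians.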

EHT 1864 + OSI-027 = compound: C1COCCN1CC2=CC(=O)C(=CO2)OCCCCCSC3=C4C=CC(=CC4=NC=C3)C(F)(F)F [EHT 1864] + COc1cccc2cc(-c3nc([C@H]4CC[C@H](C(=O)O)CC4)n4ncnc(N)c34)[nH]c12 [OSI-027] (partner 0.5 µM)
Summary of the method: as §1

EHT 1864 + Foretinib = compound: C1COCCN1CC2=CC(=O)C(=CO2)OCCCCCSC3=C4C=CC(=CC4=NC=C3)C(F)(F)F [EHT 1864] + COc1cc2c(Oc3ccc(NC(=O)C4(C(=O)Nc5ccc(F)cc5)CC4)cc3F)ccnc2cc1OCCCN1CCOCC1 [Foretinib] (partner 0.25 µM)
Summary of the method: as §1

EHT 1864 + AZD7762 = compound: C1COCCN1CC2=CC(=O)C(=CO2)OCCCCCSC3=C4C=CC(=CC4=NC=C3)C(F)(F)F [EHT 1864] + NC(=O)Nc1cc(-c2cccc(F)c2)sc1C(=O)N[C@H]1CCCNC1 [AZD7762] (partner 0.2 µM)
Summary of the method: as §1

Cell Line | relative viability (EHT 1864 + Pemetrexed; first compound 0.04 µM) | relative viability (EHT 1864 + Pemetrexed; first compound 0.1265 µM) | relative viability (EHT 1864 + Pemetrexed; first compound 0.4 µM) | relative viability (EHT 1864 + Pemetrexed; first compound 1.265 µM) | relative viability (EHT 1864 + Pemetrexed; first compound 4 µM) | relative viability (EHT 1864 + OSI-027; first compound 0.04 µM) | relative viability (EHT 1864 + OSI-027; first compound 0.1265 µM) | relative viability (EHT 1864 + OSI-027; first compound 0.4 µM) | relative viability (EHT 1864 + OSI-027; first compound 1.265 µM) | relative viability (EHT 1864 + OSI-027; first compound 4 µM) | relative viability (EHT 1864 + Foretinib; first compound 0.04 µM) | relative viability (EHT 1864 + Foretinib; first compound 0.1265 µM) | relative viability (EHT 1864 + Foretinib; first compound 0.4 µM) | relative viability (EHT 1864 + Foretinib; first compound 1.265 µM) | relative viability (EHT 1864 + Foretinib; first compound 4 µM) | relative viability (EHT 1864 + AZD7762; first compound 0.04 µM) | relative viability (EHT 1864 + AZD7762; first compound 0.4 µM) | relative viability (EHT 1864 + AZD7762; first compound 1.265 µM) | relative viability (EHT 1864 + AZD7762; first compound 4 µM) | relative viability (EHT 1864 + AZD7762; first compound 0.1265 µM)
COR-L 105 | 1.03 | 1.06 | 0.966 | 1.01 | 0.984 | 0.773 | 0.559 | 0.851 | 0.61 | 0.655 | 0.959 | 1.02 | 1.25 | 1.19 | 0.917 | – | – | – | – | –
LK-2 | 0.305 | – | 0.259 | 0.288 | 0.25 | 0.243 | 0.154 | 0.227 | 0.188 | 0.187 | 1.14 | – | 0.919 | 0.982 | 1.35 | 0.462 | 0.296 | 0.443 | 0.286 | –
NCI-H727 | – | – | – | – | – | 0.525 | 0.532 | 0.592 | 0.576 | 0.61 | 0.905 | 0.875 | 0.724 | 0.95 | 0.928 | 0.579 | 0.587 | 0.555 | 0.794 | 0.693
RERF-LC-KJ | 0.46 | 0.443 | 0.484 | 0.462 | 0.504 | 0.621 | 0.539 | 0.52 | 0.575 | 0.541 | 1.01 | 0.838 | 0.834 | 0.896 | 0.893 | 0.893 | 0.96 | 0.939 | 1.43 | 0.873
NCI-H2023 | 0.232 | 0.258 | 0.166 | 0.201 | 0.197 | 0.373 | 0.314 | 0.375 | 0.313 | 0.369 | 0.787 | 0.855 | 0.957 | 0.876 | 0.778 | – | – | – | – | –
NCI-H322M | 0.606 | 0.64 | 0.596 | 0.678 | 0.604 | 0.591 | 0.444 | 0.535 | 0.585 | 0.533 | 0.898 | 0.948 | 0.995 | 0.895 | 1.06 | 0.601 | 0.589 | 0.577 | 0.667 | 0.501
NCI-H1666 | 1.02 | 0.831 | 0.896 | 0.786 | 0.843 | 0.887 | 0.691 | 0.8 | 0.81 | 0.833 | 0.999 | 0.917 | 0.894 | 0.948 | 0.998 | 0.826 | 0.915 | 0.997 | 1.1 | 0.747
NCI-H1648 | 0.827 | – | 0.673 | 0.655 | 0.726 | 0.273 | 0.29 | 0.242 | 0.23 | 0.255 | – | – | – | – | – | 0.72 | 0.609 | 0.662 | 0.866 | –
NCI-H2087 | 0.691 | – | 0.596 | 0.642 | 0.657 | 0.496 | – | 0.578 | 0.496 | 0.586 | 1.01 | – | 1 | 1.01 | 0.845 | 1.25 | 1.2 | 1.25 | 1.23 | –
LU99A | 0.196 | 0.178 | 0.179 | 0.186 | 0.19 | 0.354 | 0.212 | 0.327 | 0.29 | 0.278 | 0.818 | 0.796 | 0.835 | 0.805 | 0.749 | 0.445 | 0.359 | 0.308 | 0.403 | 0.203
HCC-366 | 0.159 | 0.145 | 0.136 | 0.15 | 0.152 | 0.805 | 0.603 | 0.939 | 0.872 | 0.935 | 0.914 | 0.859 | 0.888 | 0.891 | 0.963 | 0.262 | 0.248 | 0.28 | 0.243 | 0.232
EKVX | 0.362 | 0.381 | 0.404 | 0.34 | 0.495 | 0.705 | 0.68 | 0.698 | 0.711 | 0.839 | 1.09 | 0.758 | 0.715 | 0.661 | 0.592 | 0.685 | 0.484 | 0.764 | 0.684 | 0.661
NCI-H522 | 1.29 | 0.75 | 0.977 | 1.16 | 1.18 | 0.818 | 0.631 | 0.696 | 0.662 | 0.652 | – | – | – | – | – | 0.844 | 0.802 | 0.973 | 1.07 | 0.774
NCI-H1755 | 0.477 | 0.376 | 0.389 | 0.468 | 0.388 | 0.779 | 0.619 | 0.691 | 0.619 | 0.618 | 0.914 | 0.872 | 0.876 | 0.844 | 0.803 | 0.438 | 0.405 | 0.402 | 0.456 | 0.424
NCI-H647 | 0.203 | 0.13 | 0.164 | 0.157 | 0.177 | 0.622 | 0.368 | 0.598 | 0.738 | 0.621 | 1.19 | 0.977 | 1.37 | 1.27 | 1.26 | 0.621 | 0.661 | 0.44 | 0.461 | 0.296
LC-2-ad | 0.265 | 0.271 | 0.247 | 0.274 | 0.308 | 0.808 | – | 1 | 0.98 | 0.788 | 0.859 | – | 0.905 | 1.01 | 0.962 | 0.808 | 0.88 | 0.855 | 0.806 | 0.634
NCI-H1944 | 0.669 | – | 0.64 | 0.58 | 0.693 | 0.44 | – | 0.443 | 0.417 | 0.399 | 0.893 | – | 0.882 | 0.89 | 0.701 | 0.5 | 0.511 | 0.563 | 0.665 | –
